Converted amounts (≈) assume the structure as drawn. Like-named read-outs stand apart in the source and are kept apart here. Marks after values point to notes of the source that are not given here.

One series concerns C. albicans. Description: MIC testing (CLSI broth dilution). The class given is cell-based, Candida albicans. Here is the method: (§1) MICs were determined using Clinical and Laboratory Standards Institute guidelines ([48], [49]). All yeasts were cultured overnight in 3 mL YPD at 30°C, then washed twice in sterile phosphate-buffered saline (PBS). Twofold serial dilutions of each drug were prepared in RMPI + MOPS, then 1 × 10^3 cells were added per well. For mold species, wells were inoculated with 1.25 × 10^3 conidia per well. Plates were incubated at 37°C for 24 (Candida spp. and S. cerevisiae), 48 (Aspergillus spp., M. circinelloides, S. apiospermum, and L. prolificans), or 72 (C. neoformans and F. oxysporum) hours. S. cerevisiae BY4743 MICs were tested in YPD due to nutritional requirements of this strain. Each assay was performed in technical duplicate in at least two independent experiments performed on different days.

The test system of a further series is A. terreus. Description: MIC testing (CLSI broth dilution). The class given is cell-based, Aspergillus terreus. As for the experimental part: as §1
For orientation: Broth dilution looks for growth in wells or tubes with falling amounts of substance.

Series [1] deals with A. fumigatus UPR-responsive genes. Description: A. fumigatus UPR gene expression (qRT-PCR). It counts as cell-based, Aspergillus fumigatus. Here is the method:
We cultured 5 × 10^6 CEA10 conidia/mL in liquid GMM for 18 hours at 37°C with shaking at 250 rpm. Cultures were treated with either DMSO or 16 µg/mL 1 for 2 hours at 37°C, 250 rpm. Then 1 mM DTT or water was added, and cultures were incubated for an additional hour. Mycelia were collected with vacuum filtration and immediately frozen with liquid nitrogen. Tissue was lyophilized then ground with glass beads with a bead beater. RNA was extracted in 1 mL of TRIazole solution (Life Technologies, Cat # 15596026), then RNA was purified with two rounds of chloroform extraction. Five micrograms of RNA was treated with TURBO DNA-free kit (Invitrogen, Cat # AM1907) according to the manufacturer’s protocol. Five hundred nanograms of DNAse-treated RNA was used for cDNA synthesis with iScript cDNA synthesis kit (BioRad, Cat # 1708891), then cDNA was diluted 1:5 with ddH2O. Quantitative real time PCR analysis was performed in 20 µL reactions using 2 µL of dilute cDNA per reaction with iQ SYBR Green Supermix (BioRad). Samples were run on a BioRad CFX Connect using a three-step amplification with 54°C annealing temperature and melt curve analysis. Gene expression is normalized to tubA and tef1 expression. Gene expression was performed in biological triplicate. Primers to detect HacA splicing and targets were designed as previously described ([51]).
In general terms: Quantitative PCR measures a nucleic acid by following its amplification.

Series [2] deals with C. neoformans. Description: C. neoformans time kill assay. The class given is cell-based, Cryptococcus neoformans. As for the experimental part: Overnight cultures of H99 were enumerated and diluted 1 × 10^5 CFU/mL in YPD with 4 µg/mL 1, 8 µg/mL 1, or DMSO. Cultures were incubated at 37°C with shaking for 30 hours with sampling at t = 0, 2, 4, 6, 8, 24, and 30 hours, then 10-fold serial dilutions of each sample were prepared and spotted on YPD. Viable colonies were enumerated after 48 hours at 30°C. Data are representative of two independent experiments performed in biological triplicate with technical duplicates.

The test system of another series is A. niger. Description: MIC testing (CLSI broth dilution). It counts as cell-based, Aspergillus niger. The settings on record: strain S007, clinical isolate; no clear well, growth reduced by ≥50% at MEC. Here is the method:
as §1

For series [3], the system named is S. cerevisiae heterozygous mutants. Description: Chemical haploinsufficiency screen and spot dilution validation. Conditions: Saccharomyces cerevisiae, read-out: inhibition of wild-type growth. The class given is cell-based.
The next series has as its system Hog1. Description: Western blotting for total and phosphorylated Hog1. It counts as cell-based, Cryptococcus neoformans. As for the experimental part:
C. neoformans H99 overnight cultures were diluted to OD = 0.1 in YPD and incubated at 30°C for 3 hours with shaking. Cultures were split into four subcultures and treated with DMSO or 1 µg/mL 1 (two each) for 2 hours at 30°C, then water or 1 M NaCl was added to one culture of each treatment and incubated for an additional 30 min at 30°C. Cell pellets were snap frozen and stored at −80°C. Protein was extracted in extraction buffer (10 mM HEPES, pH 7.4–7.9, 1.5 mM MgCl2, 10 mM KCl, 1 mM DTT, 1× HALT protease and phosphatase inhibitor cocktail) by bead beading for 30 s on 60 s off with incubation on ice five times. The supernatant was removed from glass beads, and protein concentration was quantified by Bradford protein assay. Twenty micrograms of protein was loaded on a 10% SDS-PAGE gel and run at 80 V. Samples were transferred to nitrocellulose membrane for 1 hour at 100 V, then the membrane was stained with Ponceau for 15 min at RT. Membranes were blocked with 5% bovine serum albumin (BSA) in Tris-buffered saline with Tween 20 (TBST) for 1 hour at room temperature, then incubated with 1:10,000 rabbit anti-p-p38 (Phospho-p38 MAPK, # 9211; Cell Signaling) in 5% BSA/TBST or 1:5,000 custom Hog1 antibody # R02361 (GenScript) overnight at 4°C. […]
(In general: Immunoblotting shows a protein as a band on a membrane.)

The subject of series [4] is C. neoformans. Description: MIC testing in the presence of 10% serum. It counts as cell-based. Here is the method: as §1
Series [5] can be described thus: Mouse microsome stability. It counts as in vitro ADME. Conditions: mouse microsomes, 0.5 mg/mL microsomes, NADPH cofactors, 37°C. Here is the method: 1 (2 mM in DMSO) was incubated at 37°C with 0.5 mg/mL mouse microsomes (lot # 2110330) fraction and Phase I (NADPH regenerating system) cofactors for 0–120 min at a final concentration of 2 µM. Reactions were quenched with 0.5 mL (1:1) of methanol containing formic acid (FA) 0.2% and 100 ng/mL n-benzylbenzamide internal standard (IS; 0.1% FA and 50ng/mL IS final). Samples were vortexed for 30 s, incubated at room temperature for 10 min, and spun for 5 min at 2,200 rpm in a tabletop centrifuge. Supernatant (~0.9 mL) was then transferred to an Eppendorf tube and spun in a 4°C microfuge for 5 min at 13,200 rpm. Supernatant was transferred to an high-performance liquid chromatography plate with seal and samples then analyzed by a 4500 LC-MS/MS.

Setting [6] is: combination: 16 µg/mL 1 for 2 hours, then 1 mM DTT for 1 hour.
Setting [7] is: single agent (16 µg/mL 1, or 1 mM DTT for 1 hour), normalized to DMSO.

With `OC1CC(c2cc(N3CCC(CCc4ccccc4)CC3)ncn2)C1` (centres unmarked) [compound 1], the MIC – broadly, the least concentration at which growth counts as inhibited – in the series on C. albicans (Candida albicans, strain SC5314, CLSI conditions, 24 h, read-out: MIC) is 64 µg/mL (≈ 190 µM); in the series on C. albicans (Candida albicans, strain not named, read-out: MIC), 64 µg/mL (≈ 190 µM); in the series with C. albicans (strain TWO7241, azole-resistant clinical isolate, CLSI conditions) it was 64 µg/mL (≈ 190 µM); against C. albicans (strain TWO7243, azole-resistant clinical isolate, CLSI conditions), 64 µg/mL (≈ 190 µM); in the series with A. terreus (Aspergillus terreus, strain S010, clinical isolate, CLSI conditions) it was 8 µg/mL (≈ 23.7 µM). The “Minimum effective concentration (MEC)” value was 16^b µg/mL in the series on A. terreus (strain S023, clinical isolate, no clear well, growth reduced by ≥50% at MEC) and 16^b µg/mL in the series with A. niger. Further, the “increase in HacA^A splicing” value in series [1] (setting [6]) was 17 fold. For the same molecule, in series [1] (setting [6]), the “increase in HacA^B” value stood at 3 fold. The “increase in BipA expression” value in series [1] (setting [7]) was found to be 2 fold. The “increase in PdiA expression” value in [1] (setting [7]) is reported as “no change”. Besides, the “increase of spliced HacA (HacA^A)” value in [1] (setting [7]) is recorded as “about threefold”. Moreover, the “propidium iodide staining of C. neoformans vs vehicle” value in the series with C. neoformans [2] (8 µg/mL, 24 hours post treatment (Fig. S1)) was “did not observe changes in propidium iodide”. The “type of activity (time kill)” value with C. neoformans [2] (2× (4 µg/mL) or 4× (8 µg/mL) MIC over 30 hours) is given as “fungistatic”. In addition, in the series on C. neoformans [2] (4 or 8 µg/mL, 8, 24 and 30 hours post-treatment), the “viable CFUs vs vehicle-treated controls” value was “significantly reduced”. The inhibition (commonly the drop in the measured response relative to a control, in per cent) at 32 µg/mL in [3] is roughly 50%. Besides, the Hog1 phosphorylation result with Hog1 (1 µg/mL 1 alone for 2 hours at 30°C) is “activation of Hog1 via phosphorylation”. The “Hog1 phosphorylation, combination with salt” value in the series on Hog1 (1 µg/mL 1 for 2 hours, then 1 M NaCl 30 min) is “additive”. Further, the “increase in MIC in the presence of 10% serum” value in the series with C. neoformans [4] is on record as 2 fold. The half-life – broadly, how long it takes for the measured level to halve – at 2 µM in series [5] was 1.25 h.
